Assay results from PubChem BioAssay (NCI).
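Step 1: Grow cells in 96-well plates. Step 2: Expose to compound for 48 hours at 5 concentrations. Step 3: Interpolate endpoints linearly; if unreached, use highest concentration. Here, GI50 denotes the concentration required for 50% inhibition of growth. TGI marks complete inhibition of growth.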

What was measured:
Experiment in all cases: DTP human tumour cell line panel, 48 h
SF-295 CNS = system: SF-295 CNS
UACC-62 melanoma = system: UACC-62 melanoma
SNB-19 CNS = system: SNB-19 CNS
ACHN renal = system: ACHN renal
NCI-H460 lung = system: NCI-H460 lung
BT-549 breast = system: BT-549 breast
OVCAR-5 ovarian = system: OVCAR-5 ovarian
MDA-MB-435 = system: MDA-MB-435
PC-3 prostate = system: PC-3 prostate
HS 578T breast = system: HS 578T breast

In the case of `Oc1ccc(C(c2ccc(O)cc2)c2ccc(Br)cn2)cc1`, the GI50 (SF-295 CNS) is reported as 0.331 µM, the TGI (SF-295 CNS) is reported as 1.63 µM and the GI50 (UACC-62 melanoma) is reported as 3.71 µM. The TGI (UACC-62 melanoma) was 15.5 µM, the GI50 (SNB-19 CNS) was 16.1 µM and the TGI (SNB-19 CNS) was over 100 µM. For the same compound, the GI50 (ACHN renal) was 0.45 µM, the TGI (ACHN renal) was 14.5 µM and the GI50 (NCI-H460 lung) was 20.7 µM. It also gave a TGI (NCI-H460 lung) of 49.1 µM, a GI50 (BT-549 breast) of 0.26 µM and a TGI (BT-549 breast) of 0.788 µM. For the same compound, the GI50 (OVCAR-5 ovarian) was 13.7 µM, the TGI (OVCAR-5 ovarian) was over 71 µM and the GI50 (MDA-MB-435) was 20 µM. The TGI (MDA-MB-435) was 65.9 µM, the GI50 (PC-3 prostate) was 0.257 µM and the TGI (PC-3 prostate) was 0.72 µM. It also gave a GI50 (HS 578T breast) of 0.242 µM and a TGI (HS 578T breast) of 0.593 µM.

Compound `O=C1c2sccc2-c2cccc3cccc1c23` (tested in a mixture with another compound) has a TGI (SF-295 CNS) of 45 µM, a TGI (UACC-62 melanoma) of 22.6 µM and a TGI (SNB-19 CNS) of 35 µM. The TGI (ACHN renal) was 12.2 µM, the TGI (NCI-H460 lung) was 82.6 µM and the TGI (BT-549 breast) was 25.7 µM. It also gave a TGI (OVCAR-5 ovarian) of 25.5 µM, a TGI (MDA-MB-435) of over 100 µM and a TGI (PC-3 prostate) of 31.6 µM. The TGI (HS 578T breast) was 6.72 µM.

Compound `NS(=O)(=O)c1ccc(-c2cc3ccncc3cc2OCc2ccccc2)cc1` has a GI50 (SF-295 CNS) of over 18 µM, a TGI (SF-295 CNS) of over 25 µM and a GI50 (UACC-62 melanoma) of over 23.7 µM. It also gave a TGI (UACC-62 melanoma) of over 25 µM, a GI50 (SNB-19 CNS) of over 25 µM and a TGI (SNB-19 CNS) of over 25 µM. It also gave a GI50 (ACHN renal) of over 19 µM, a TGI (ACHN renal) of over 25 µM and a GI50 (NCI-H460 lung) of 9.77 µM. For the same compound, the TGI (NCI-H460 lung) was over 25 µM, the GI50 (BT-549 breast) was 6.01 µM and the TGI (BT-549 breast) was over 25 µM. For the same compound, the GI50 (OVCAR-5 ovarian) was over 25 µM, the TGI (OVCAR-5 ovarian) was over 25 µM and the GI50 (MDA-MB-435) was over 25 µM. For the same compound, the TGI (MDA-MB-435) was over 25 µM, the GI50 (PC-3 prostate) was over 20.5 µM and the TGI (PC-3 prostate) was over 25 µM. For the same compound, the GI50 (HS 578T breast) was 7.04 µM and the TGI (HS 578T breast) was over 25 µM.

`COC1=C(OC)C(=O)C(SC/C=C(\C)CCCC(C)CCCC(C)CCCC(C)C)=CC1=O` (stereo not given) gave a GI50 (SF-295 CNS) of 0.734 µM, a TGI (SF-295 CNS) of 2.88 µM and a GI50 (UACC-62 melanoma) of 0.797 µM. For the same compound, the TGI (UACC-62 melanoma) was over 100 µM, the GI50 (SNB-19 CNS) was 1.5 µM and the TGI (SNB-19 CNS) was over 100 µM. The GI50 (ACHN renal) was 2.04 µM, the TGI (ACHN renal) was over 100 µM and the GI50 (NCI-H460 lung) was 0.95 µM. It also gave a TGI (NCI-H460 lung) of over 32.7 µM, a GI50 (BT-549 breast) of 0.993 µM and a TGI (BT-549 breast) of 10.2 µM. The GI50 (OVCAR-5 ovarian) was 0.564 µM, the TGI (OVCAR-5 ovarian) was over 89.7 µM and the GI50 (MDA-MB-435) was 0.845 µM. For the same compound, the TGI (MDA-MB-435) was over 38.7 µM, the GI50 (PC-3 prostate) was 0.255 µM and the TGI (PC-3 prostate) was over 100 µM. It also gave a GI50 (HS 578T breast) of 0.709 µM and a TGI (HS 578T breast) of over 48.4 µM.

With `Cc1cccc2c3c(sc12)C(c1ccc(Cl)cc1)C(C#N)=C(N)O3` (stereo not given) the GI50 (SF-295 CNS) was 0.26 µM, the TGI (SF-295 CNS) was 0.992 µM and the GI50 (UACC-62 melanoma) was 0.327 µM. It also gave a TGI (UACC-62 melanoma) of 11.3 µM, a GI50 (SNB-19 CNS) of 0.452 µM and a TGI (SNB-19 CNS) of 12.6 µM. The GI50 (ACHN renal) was 0.834 µM, the TGI (ACHN renal) was 14.1 µM and the GI50 (NCI-H460 lung) was 0.37 µM. The TGI (NCI-H460 lung) was 3.92 µM, the GI50 (BT-549 breast) was 0.98 µM and the TGI (BT-549 breast) was 6.9 µM. For the same compound, the GI50 (OVCAR-5 ovarian) was 0.541 µM, the TGI (OVCAR-5 ovarian) was 11.5 µM and the GI50 (MDA-MB-435) was 0.182 µM. It also gave a TGI (MDA-MB-435) of 0.42 µM, a GI50 (PC-3 prostate) of 0.395 µM and a TGI (PC-3 prostate) of 12.8 µM. For the same compound, the GI50 (HS 578T breast) was 0.274 µM and the TGI (HS 578T breast) was 1.48 µM.

Work on `C[C@]12CC[C@@H]3c4cc(OC(F)F)c(OS(N)(=O)=O)cc4CC[C@H]3[C@@H]1CC[C@@H]2O` yielded a GI50 (SF-295 CNS) of 0.252 µM, a TGI (SF-295 CNS) of 1.03 µM and a GI50 (UACC-62 melanoma) of 0.299 µM. It also gave a TGI (UACC-62 melanoma) of 16.7 µM, a GI50 (SNB-19 CNS) of 0.532 µM and a TGI (SNB-19 CNS) of 25.6 µM. The GI50 (ACHN renal) was 0.65 µM, the TGI (ACHN renal) was 49.1 µM and the GI50 (NCI-H460 lung) was 0.401 µM. It also gave a TGI (NCI-H460 lung) of 11.3 µM, a GI50 (BT-549 breast) of 0.901 µM and a TGI (BT-549 breast) of 16.9 µM. It also gave a GI50 (OVCAR-5 ovarian) of 1.77 µM, a TGI (OVCAR-5 ovarian) of over 62.8 µM and a GI50 (MDA-MB-435) of 0.209 µM. For the same compound, the TGI (MDA-MB-435) was 0.603 µM, the GI50 (PC-3 prostate) was 0.537 µM and the TGI (PC-3 prostate) was 47.8 µM. For the same compound, the GI50 (HS 578T breast) was 0.366 µM and the TGI (HS 578T breast) was 30.2 µM.

For `O=C(CC1(O)C(=O)N(Cc2ccccc2)c2ccccc21)c1ccc(C(=O)NCC2CCC3(CC2)OOC2(CCCCC2)OO3)cc1` (stereo not given), the GI50 (SF-295 CNS) was 1.3 µM, the TGI (SF-295 CNS) was 5.11 µM and the GI50 (UACC-62 melanoma) was 2.2 µM. For the same compound, the TGI (UACC-62 melanoma) was 5.44 µM, the GI50 (SNB-19 CNS) was 4.67 µM and the TGI (SNB-19 CNS) was 51.8 µM. For the same compound, the GI50 (ACHN renal) was 0.195 µM, the TGI (ACHN renal) was 0.399 µM and the GI50 (NCI-H460 lung) was 1.29 µM. It also gave a TGI (NCI-H460 lung) of 3.51 µM, a GI50 (BT-549 breast) of 1.88 µM and a TGI (BT-549 breast) of 4.03 µM. The GI50 (OVCAR-5 ovarian) was 1.61 µM, the TGI (OVCAR-5 ovarian) was 7.52 µM and the GI50 (MDA-MB-435) was 0.875 µM. For the same compound, the TGI (MDA-MB-435) was 2.45 µM, the GI50 (PC-3 prostate) was 1.58 µM and the TGI (PC-3 prostate) was 4.91 µM. For the same compound, the GI50 (HS 578T breast) was 2.76 µM and the TGI (HS 578T breast) was 7.81 µM.

In the case of `O=C(Nc1cccc(-n2cc(-c3ccncc3)c(-c3cc(O)cc(Cl)c3)n2)c1)c1cc(C(F)(F)F)cc(C(F)(F)F)c1`, the GI50 (SF-295 CNS) is reported as 2.37 µM, the TGI (SF-295 CNS) is reported as 7.15 µM and the GI50 (UACC-62 melanoma) is reported as 3.79 µM. For the same compound, the TGI (UACC-62 melanoma) was 22.4 µM, the GI50 (SNB-19 CNS) was 7.03 µM and the TGI (SNB-19 CNS) was over 100 µM. The GI50 (ACHN renal) was 4.98 µM, the TGI (ACHN renal) was over 100 µM and the GI50 (NCI-H460 lung) was 3.04 µM. For the same compound, the TGI (NCI-H460 lung) was over 100 µM, the GI50 (BT-549 breast) was 4.65 µM and the TGI (BT-549 breast) was 46.6 µM. It also gave a GI50 (OVCAR-5 ovarian) of 8.23 µM, a TGI (OVCAR-5 ovarian) of 38.4 µM and a GI50 (MDA-MB-435) of 3.16 µM. The TGI (MDA-MB-435) was over 100 µM, the GI50 (PC-3 prostate) was 2.28 µM and the TGI (PC-3 prostate) was 22.5 µM. It also gave a GI50 (HS 578T breast) of 6.38 µM and a TGI (HS 578T breast) of over 100 µM.

`C=CCN1CC(=O)N2[C@@H](Cc3ccc(O)cc3F)C(=O)N(Cc3cccc(N4CC(N5CCN(CC)CC5)C4)n3)C[C@@H]2N1C(=O)NCc1ccccc1` was tested, and the GI50 (SF-295 CNS) was 0.0965 µM, the TGI (SF-295 CNS) was 1.02 µM and the GI50 (UACC-62 melanoma) was 0.0539 µM. The TGI (UACC-62 melanoma) was 10.5 µM, the GI50 (SNB-19 CNS) was 0.0324 µM and the TGI (SNB-19 CNS) was over 100 µM. It also gave a GI50 (ACHN renal) of 0.393 µM, a TGI (ACHN renal) of over 100 µM and a GI50 (NCI-H460 lung) of 0.038 µM. For the same compound, the TGI (NCI-H460 lung) was over 100 µM, the GI50 (BT-549 breast) was 0.111 µM and the TGI (BT-549 breast) was over 54.1 µM. It also gave a GI50 (OVCAR-5 ovarian) of 0.0354 µM, a TGI (OVCAR-5 ovarian) of over 100 µM and a GI50 (MDA-MB-435) of 0.102 µM. It also gave a TGI (MDA-MB-435) of over 100 µM, a GI50 (PC-3 prostate) of 0.0359 µM and a TGI (PC-3 prostate) of over 100 µM. For the same compound, the GI50 (HS 578T breast) was 0.0279 µM and the TGI (HS 578T breast) was 0.15 µM.
